From patent US7511137B2, “Stereoisomers and stereoisomeric mixtures of 1-(2,4-pyrimidinediamino)-2-cyclopentanecarboxamide synthetic intermediates” (Rigel Pharmaceuticals, Inc., priority 2003, dated 2009)
Entries after “also recorded” stand apart in the source; their conditions may differ. Where two headings read alike, the source gives them in different places.

Legend:
Format in all cases: cell-based
HCT116 (colon/p53wt) = experiment: in vitro antiproliferation assay, HCT116; settings: Homo sapiens, HCT-116; HCT116 colon/p53wt tumor cell line
Procedure: (§1) The four stereoisomers isomers of (1S, 2R)-1-(2,4-pyrimidinediamino)-2-cyclopentanecarboxamide (1), (2), (3) and (4) were prepared as described in Examples 1-4. The racemic mixture of the cis compound was prepared as described herein. The IC50 values of various compounds against different tumor cell lines were determined using standard in vitro antiproliferation assays. The tumor cell lines tested were as follows: A549 (lung); H1299 (lung); DU145 (prostate); HCT116 (colon/p53wt); and mirapaca.

[1] = test system: a variety of tumor cell lines; experiment: conventional antiproliferative assays, result in words
Procedure: Accordingly, stereoisomers of related 1-(2,4-pyrimidinediamino)-2-cyclopentanecarboxamides are expected to have analogous activity in antiproliferative assays.
as §1

H1299 (lung) = experiment: in vitro antiproliferation assay, H1299; settings: Homo sapiens, NCI-H1299; H1299 lung tumor cell line
Procedure: as §1

A549 (lung) = experiment: in vitro antiproliferation assay, A549; settings: Homo sapiens; A549 lung tumor cell line
Procedure: as §1

DU145 (prostate) = experiment: in vitro antiproliferation assay, DU145; settings: Homo sapiens, DU-145; DU145 prostate tumor cell line
Procedure: as §1

Row | SMILES | IC50 (HCT116 (colon/p53wt)) [µM] | antiproliferative activity (in words) [1] | IC50 (H1299 (lung)) [µM] | IC50 (A549 (lung)) [µM] | IC50 (DU145 (prostate)) [µM] | antiproliferative activity (in words) ([1]; listed as trans (1S, 2S))
1 | Cc1cc(Nc2ncc(F)c(N[C@@H]3CCC[C@@H]3C(N)=O)n2)ccc1N1CCN(C)CC1 [Compound 1, (1S, 2R)-1-(2,4-pyrimidinediamino)-2-cyclopentanecarboxamide] | < 0.1 | antiproliferative activity; also recorded: active |  |  |  | 
2 | Cc1cc(Nc2ncc(F)c(N[C@H]3CCC[C@H]3C(N)=O)n2)ccc1N1CCN(C)CC1 [Compound 2, (1R, 2S)-1-(2,4-pyrimidinediamino)-2-cyclopentanecarboxamide] |  | antiproliferative activity; also recorded: active | < 10 | < 5 |  | 
3 | Cc1cc(Nc2ncc(F)c(N[C@@H]3CCC[C@H]3C(N)=O)n2)ccc1N1CCN(C)CC1 [Compound 4, (1R, 2R)-1-(2,4-pyrimidinediamino)-2-cyclopentanecarboxamide] | < 5 | active | < 5 | < 5 | < 5 | 
4 | Cc1cc(Nc2ncc(F)c(N[C@H]3CCC[C@@H]3C(N)=O)n2)ccc1N1CCN(C)CC1 [Compound 3, (1S, 2S)-1-(2,4-pyrimidinediamino)-2-cyclopentanecarboxamide] |  | antiproliferative activity | > 20 | > 20 |  | inactive
